Assay results reported in patent US20020197561A1, “Optical data carrier comprising a cyclizable compound in the information layer” (priority 2001, published 2002).

Assays:
Format in all cases: physicochemical
[1] = absorption spectra measured in solution (λmax, ε, shift Δλmax after thermal cyclization); parameters: λmax: unit: nm (local absorption maximum, 350–470 nm range); Δλmax: unit: nm; negative = hypsochromic shift; conditions: for Δλmax: shift after thermal cyclization; for λmax: solvent not given; for absorption shift after cyclization Δλmax: after thermal cyclization, negative = hypsochromic
Source text: Preference is given to dyes in which the shift in the absorption maximum induced by thermal cyclization, Δλmax, is 25 nm or more, preferably ≧35 nm, in particular ≧45 nm. If a preferably hypsochromic shift occurs, then Δλmax is negative. For the purposes of the invention, the absorption maximum is the local maximum in the range from 350 to 470 nm; it is not necessarily the absolute maximum in the UV/VIS spectrum in the range from 190 to 800 nm.
The light-absorbent compounds preferably have a molar extinction coefficient ε of >20 000 l/mol cm, preferably >30 000 l/mol cm, particularly preferably >40 000 l/mol cm, very particularly preferably >50 000 l/mol cm, at the absorption maximum λmax.
The absorption spectra are, for example, measured in solution.

[2] = cyclization temperature Tcyc by Differential Thermal Analysis (DTA); conditions: for Tcyc: table, DTA; for cyclization temperature Tcyc: determined using DTA
Procedure: The cyclization temperature Tcyc is determined, for example, by means of Differential Thermal Analysis DTA. In the case of the preferred exothermic cyclization, it corresponds to the maximum of the rearrangement signal. The heating rate in the DTA measurements is, for example, 10° C. per minute. Under these conditions, the width at half height of the rearrangement signal is preferably less than 10° C., particularly preferably less than 7° C., very particularly preferably less than 5° C. For the purposes of the invention, the width at half height is the width of the signal at a height halfway between the base and the apex.
cyclization temperature Tcyc: 123° C. (determined using DTA, see description. This also applies to the other examples).

[3] = solubility in TFP (2,2,3,3-tetrafluoropropanol)
[4] = index of refraction of spin-coated dye film over temperature cycle
Procedure: (§1) A 2% strength by weight solution of the dye in 2,2,3,3-tetrafluoropropanol was prepared at room temperature. This solution was applied by means of spin coating to a fused silica substrate. The resulting thickness of the dye film was about 150 nm. This specimen was heated from 50° C. to 133° C. in a stream of helium at a mean heating rate of 3 K/min and subsequently cooled to 81° C. at a mean cooling rate of 1.4 K/min. During the heating and cooling phases, transmission spectra of the specimen in the wavelength range from 200 nm to 1700 nm were recorded. The change in the optical properties resulting from the ring-closure reaction can be observed by looking at the transmission spectra at different temperatures.
The absorption band in the region of 450 nm obviously disappears virtually completely and leads to a change in the absorption properties which can be utilized in the wavelength range from 400 to 500 nm for the optical storage and reproduction of data, for example when a laser beam having an appropriate pulse duration and pulse energy heats the dye layer to above 133° C. Furthermore, each absorption also produces a dispersion of the index of refraction over the wavelength. This leads, in particular on the flanks of the absorption bands, to indices of refraction which are lower (short wavelength flank) or higher (long wavelength flank) than 1.4-1.6, which represents the usual range for colourless organic materials. For example, the index of refraction of the dye at 405 nm is 1.17 at the beginning of the temperature cycle and that at 515 nm is […]. After the temperature cycle, when the absorption band has disappeared virtually completely, the decolourized dye has an index of refraction in the range from 1.4 to 1.6 in the visible spectrum. This change in the index of refraction can likewise be utilized for the optical storage and reproduction of data, for example when a laser beam having an appropriate pulse duration and pulse energy heats the dye layer to above 133° C. […]

[5] = film formed by the dye (spin coating)
Source text: Apart from the abovementioned optical properties, the writeable information layer comprising light-absorbent organic substances has to have a substantially amorphous morphology to keep the noise signal during writing or reading as small as possible. For this reason, it is particularly preferred that crystallization of the light-absorbent substances be prevented in the application of the substances by spin coating from a solution, by vapour deposition and/or sublimation during subsequent covering with metallic or dielectric layers under reduced pressure.
as §1

[6] = molar extinction coefficient at λmax

Compound	ε ([1]; table)	Δλmax ([1]; table)	λmax ([1]; table)	Tcyc [2] [°C]	solubility [3] [%]	index of refraction ([4]; after the temperature cycle (50 to 133° C.), visible spectrum, decolourized dye)	index of refraction ([4]; at 405 nm, beginning of the temperature cycle, about 150 nm film on fused silica)	index of refraction ([4]; at 515 nm, beginning of the temperature cycle)	film [5]	absorption shift after cyclization Δλmax [1] [nm]	λmax (methanol) [1] [nm]	ε [1, 6]	cyclization temperature Tcyc [2] [°C]
CCOC(=O)/C(C#N)=C/C(C#N)=C1\NC(CC)Cc2cc(N(C)C)ccc21 (centres unmarked) [Example 9]	63 160	−53	452	207									
CCc1ccc(N/C=C(/Br)c2c(C#N)c(=O)[nH]c3ccc(CC)cc23)cc1 [Example 12]	32 140	>|100|*	463	161									
CCOC(=O)/C(C#N)=C/C=C1\NCCc2cc(OC)c(OC)cc21 [Example 1]					> 2	1.4-1.6	1.17	2.17	glass-like film	−49	447	47 560 l/mol cm	123
CCCCNC1=C(/C=C(/C#N)C(=O)OCC)CCC1 [Example 4]					> 2				glass-like film	−72	441	36 910 l/mol cm	198
CCCCN/C=C\c1c(C(=O)OC(C)C)c(=O)oc2cc(OC)c(OC)cc12 [Example 13]	24 580	−50	422	81									
CCC1Cc2cc(OC)ccc2/C(=C/C=C(\C#N)C(=O)OCCOC)N1 (centres unmarked) [Example 8]	37 520	−50	444	212									
CCc1ccc2c(NC(C)C)c(/C=C\C(=O)OC)c(=O)oc2c1 [Example 3]					1				glass-like film	−20	359	20 700 l/mol cm	206
CCOC(=O)/C(C#N)=C/C=C1\NCCc2ccccc21 [Example 5]	53 320	−46	440	124									
Cc1ccc(N/C=C\c2c(C#N)c(=O)oc3ccccc23)cc1C [Example 11]	30 820	>|100|*	467	157									

Second part, the compound after the results:

ε ([1]; table)	Δλmax ([1]; table)	λmax ([1]; table)	Tcyc [2] [°C]	solubility [3] [%]	index of refraction ([4]; after the temperature cycle (50 to 133° C.), visible spectrum, decolourized dye)	index of refraction ([4]; at 405 nm, beginning of the temperature cycle, about 150 nm film on fused silica)	index of refraction ([4]; at 515 nm, beginning of the temperature cycle)	film [5]	absorption shift after cyclization Δλmax [1] [nm]	λmax (methanol) [1] [nm]	ε [1, 6]	cyclization temperature Tcyc [2] [°C]	Compound
33 200	−65	445	176										CCOC(=O)/C(C#N)=C/C1=C(Nc2ccc(OC)cc2)CCCC1 [Example 17]
38 540	>|100|*	468	146										N#Cc1c(/C=C\Nc2ccccc2)c2ccc(-n3nccn3)cc2oc1=O [Example 15]
26 670	−38	386	167										COc1ccc(Nc2c(C=C(C#N)C#N)c(=O)oc3ccccc23)cc1OC [Example 16]
37 840	−70	440	174										CCCCNC1=C(C=C(C#N)C#N)CCC1 [Example 18]
21 750	−15	368	175										Cc1ccc(S(=O)(=O)OCc2c(/C=C\NC3CCCCC3)c3ccccc3oc2=O)cc1 [Example 14]
